Measured values published in US20240120519A1, “NON-AQUEOUS REDOX FLOW BATTERIES” (ENI S.P.A., priority 2020, published 2024).
Read-outs that look alike come from different tables or passages of the source.

Legend:
[1] = Cyclic voltammetry measurements (oxidation-reduction potentials); type: physicochemical; conditions: for E°′ ACN (V vs Fc/Fc^+): acetonitrile; for E°′ ACN (V vs Fc/Fc^+) / E°′ PC (V vs Fc/Fc^+): 0.1 M TBABF4, glassy carbon working electrode, 25° C., normalised to Fc/Fc^+; for E°′ PC (V vs Fc/Fc^+): propylene carbonate
Experimental: Cyclic voltammetry measurements were carried out in a hemi-cell with a three-electrode configuration, with glassy carbon working electrode, platinum counter electrode and silver/silver chloride (Ag/AgCl) reference electrode. The oxidation-reduction potentials E°′Ox/Red were derived from the position of the forward peak (Epf) and the return peak (Epr):
and the values were normalised with respect to the intersolvent ferrocene/ferrocenium (Fc/Fc^+) couple.
Evaluations were carried out on an Autolab PGSTAT 128N analytical instrument at scan rates of 10, 20, 50, 70, 100, and 200 mV/s. All evaluations were carried out in triplicate at room temperature (25° C.). For the purpose, use was made of solutions containing: • benzothiadiazole (1) (Aldrich) (5×10^−3 M) and tetrabutylammonium tetrafluoro-borate (TBABF4) (Aldrich) (0.1 M) in acetonitrile (Aldrich) (non-aqueous liquid negative electrolyte of the negative compartment) (BTD); • benzothiadiazole (1) (Aldrich) (5×10^−3 M) and tetrabutylammonium tetrafluoro-borate (TBABF4) (Aldrich) (0.1 M) in propylene carbonate (Aldrich) (non-aqueous liquid negative electrolyte of the negative compartment) (BTD); • 4,7-di[2-(propyloxycarbonylethyloxy)phenyl]-benzothiadiazole [compound (2) obtained in Example 7] (5×10^−3 M) and tetrabutylammonium tetrafluoroborate (TBABF4) (Aldrich) (0.1 M) in acetonitrile (Aldrich) (non-aqueous liquid negative electrolyte of the negative compartment) (BTD); • 4,7-di[2-(propyloxycarbonylethyloxy)phenyl]-benzothiadiazole [compound (2) obtained in Example 7] (5×10^−3 M) and tetrabutylammonium tetrafluoroborate (TBABF4) (Aldrich) (0.1 M) in propylene carbonate (Aldrich) (non-aqueous liquid negative electrolyte of the negative compartment) [BTD (2)]; • 4,7-di[2-methoxycarbonylethyloxy)phenyl]-benzothiadiazole [compound (3) obtained in Example 1] (5×10^−3 M) and tetrabutylammonium tetrafluoroborate (TBABF4) (Aldrich) (0.1 M) in acetonitrile (Aldrich) (non-aqueous liquid negative electrolyte of the negative compartment) [BTD (3)]; • 4,7-di[2-(methoxycarbonylethyloxy)phenyl]-benzothiadiazole [compound (3) obtained in Example 1] (5×10^−3 M) and tetrabutylammonium tetrafluoroborate (TBABF4) (Aldrich) (0.1 M) in propylene carbonate (Aldrich) (non-aqueous liquid negative electrolyte of the negative compartment) [BTD (3)]; • 4,7-di[2-(2-(2-methoxyethoxy)ethoxy)phenyl]-benzothiadiazole [compound (4) obtained in Example 3] (5×10^−3 M) and tetrabutylammonium tetrafluoroborate (TBABF4) (Aldrich) (0.1 M) in acetonitrile (Aldrich) (non-aqueous liquid negative electrolyte of the negative compartment) [BTD (4)]; • 4,7-di[2-(2-(2-methoxyethoxy)ethoxy)phenyl]-benzothiadiazole [compound (4) obtained in Example 3] (5×10^−3 M) and tetrabutylammonium tetrafluoroborate (TBABF4) (Aldrich) (0.1 M) in propylene carbonate (Aldrich) (non-aqueous liquid negative electrolyte of the negative compartment) [BTD (4)]; • 4,7-di[2,6-di(propyloxycarbonylethyloxy)phenyl]-benzothiadiazole [compound (5) obtained in Example 4] (5×10^−3 M) and tetrabutylammonium tetrafluoroborate (TBABF4) (Aldrich) (0.1 M) in acetonitrile (Aldrich) (non-aqueous liquid negative electrolyte of the negative compartment) [BTD (5)]; • 4,7-di[2,6-di(propyloxycarbonylethyloxy)phenyl]-benzothiadiazole [compound (5) obtained in Example 4] (5×10^−3 M) and tetrabutylammonium tetrafluoroborate (TBABF4) (Aldrich) (0.1 M) in propylene carbonate (Aldrich) (non-aqueous liquid negative electrolyte of the negative compartment) [BTD (5)]; • 4,7-di[2,5-di(propyloxycarbonylethyloxy)phenyl]-benzothiadiazole [compound (6) obtained in Example 5] (5×10^−3 M) and tetrabutylammonium tetrafluoroborate (TBABF4) (Aldrich) (0.1 M) in acetonitrile (Aldrich) (non-aqueous liquid negative electrolyte of the negative compartment) [BTD (6)]; • 4,7-di[2,5-di(propyloxycarbonylethyloxy)phenyl]-benzothiadiazole [compound (6) obtained in Example 5] […]

[2] = Stability tests in cyclic voltammetry; type: physicochemical; conditions: 1×10^−3 M, 0.1 M TBABF4 in acetonitrile
Experimental: Stability tests were carried out using the same electrochemical cell as in Example 9.
For the purpose, use was made of solutions containing: • 4,7-di[2-(propyloxycarbonylethyloxy)phenyl]-benzothiadiazole [Compound (2) obtained in Example 2 or 7] (1×10^−3 M) and tetrabutylammonium tetrafluoroborate (TBABF4) (Aldrich) 0.1 M in acetonitrile (Aldrich) (non-aqueous liquid negative electrolyte of the negative compartment).

[3] = Non-aqueous redox flow battery (RFB) charge/discharge tests
Experimental: Charge-discharge tests were carried out using an electrochemical cell with a Teflon® membrane (DuPont), having a surface area equal to approximately 0.8 cm^2, placed between two platinum electrodes (Methrohm) having a surface area equal to approximately 0.07 cm^2. The electrochemical cell was then assembled and sealed in a container containing argon (Ar).
For the purpose, use was made of solutions containing: • 4,7-di[2-(propyloxycarbonylethyloxy)phenyl]-benzothiadiazole [Compound (2) obtained in Example 7]: (1×10^−3 M) and tetrabutylammonium tetrafluoroborate (TBABF4) (Aldrich) (0.1 M) in acetonitrile (Aldrich) (non-aqueous liquid negative electrolyte of the negative compartment), degassed with argon (Ar) and subjected to electrolysis in order to obtain benzothiadiazole in reduced form [(BTD (2)·^−)]; • tetrakisacetonitrile copper(I) tetrafluoroborate [Cu(NCCH3)4·BF4] (1×10^−3 M) and tetrabutylammonium tetrafluoroborate (TBABF4) (Aldrich) (0.1 M) in acetonitrile (Aldrich) (non-aqueous liquid positive electrolyte of the positive compartment) (Cu triflate), degassed with argon (Ar).
6 ml of the above solutions were introduced into the respective compartments.
The test was carried out using a potentiostat/galvanostat Autolab PGSTAT 128N (Metrohom) at room temperature (25° C.).
Charge and discharge curves were carried out to assess the performance of the electrolytes in the cell. […]

SMILES | E°′ ACN (V vs Fc/Fc^+) [1] [V vs Fc/Fc^+] | E°′ PC (V vs Fc/Fc^+) [1] [V vs Fc/Fc^+] | potential difference (E°) in open circuit ([1]; solution in acetonitrile, E°=(E°1)−(E°2) against Cu triflate (0.62 V)) [V] | stability over 150 successive redox cycles [2] | stability during charge/discharge (oxidation-reduction cycles) [3] | stability during charge/discharge (oxidation-reduction cycles) ([3]; 1×10^−3 M in acetonitrile, 0.1 M TBABF4, Teflon membrane, charge 2.5 V, discharge 0.5 V, 240 seconds each, 25° C.)
CCOC(=O)CCCOc1ccccc1-c1ccc(-c2ccccc2OCCCC(=O)OCC)c2nsnc12 [Compound (2)] | −1.91 | −1.84 | 2.53 | the cycles are superimposable | good stability during oxidation-reduction cycles | 
CCOC(=O)COc1ccccc1-c1ccc(-c2ccccc2OCC(=O)OCC)c2nsnc12 [Compound (3)] | −1.86 | −1.82 |  |  |  | 
COCCOCCOc1ccccc1-c1ccc(-c2ccccc2OCCOCCOC)c2nsnc12 [Compound (4), 4,7-di[2-(2-(2-methoxyethoxy)ethoxy)phenyl]-benzothiadiazole] | −1.90 | −1.85 |  |  |  | 
CCOC(=O)CCCOc1cccc(OCCCC(=O)OCC)c1-c1ccc(-c2c(OCCCC(=O)OCC)cccc2OCCCC(=O)OCC)c2nsnc12 [Compound (5)] | −2.00 | −1.95 |  |  |  | 
CCOC(=O)CCCOc1ccc(OCCCC(=O)OCC)c(-c2ccc(-c3cc(OCCCC(=O)OCC)ccc3OCCCC(=O)OCC)c3nsnc23)c1 [Compound (6)] | −1.88 | −1.83 |  |  |  | 
CCOC(=O)CCCOc1ccc(-c2ccc(-c3ccc(OCCCC(=O)OCC)cc3OCCCC(=O)OCC)c3nsnc23)c(OCCCC(=O)OCC)c1 [Compound (7)] | −1.93 | −1.88 |  |  |  | 
O=S(=O)([O-])C(F)(F)F.O=S(=O)([O-])C(F)(F)F.[Cu+2] [Cu triflate, copper(II) trifluoromethanesulphonate, reference compound] | 0.62 | 0.43 |  |  |  | 
CC#N.CC#N.CC#N.CC#N.F[B-](F)(F)F.[Cu+] [Cu, tetrakisacetonitrile copper(I) tetrafluoroborate, reference compound] |  |  |  |  |  | good stability during oxidation-reduction cycles
